Laboratory results reported in patent publication US8710001B2, “PEGylated, extended insulins” (Novo Nordisk A/S, priority 2006, dated 2014).

What follows are substances tested against human insulin receptor, A-isoform (without exon 11) (Homo sapiens, UniProt P06213) (assay: Insulin receptor binding, SPA (Scintillation Proximity Assay) microtiterplate antibody capture assay). Settings: affinity relative to human insulin; purified recombinant human insulin receptor; A14Tyr[125I]-human insulin tracer; 16 hours incubation.
Sequence of human insulin receptor, A-isoform (without exon 11) (P06213 28-746 isoform P06213-2 limits assumed): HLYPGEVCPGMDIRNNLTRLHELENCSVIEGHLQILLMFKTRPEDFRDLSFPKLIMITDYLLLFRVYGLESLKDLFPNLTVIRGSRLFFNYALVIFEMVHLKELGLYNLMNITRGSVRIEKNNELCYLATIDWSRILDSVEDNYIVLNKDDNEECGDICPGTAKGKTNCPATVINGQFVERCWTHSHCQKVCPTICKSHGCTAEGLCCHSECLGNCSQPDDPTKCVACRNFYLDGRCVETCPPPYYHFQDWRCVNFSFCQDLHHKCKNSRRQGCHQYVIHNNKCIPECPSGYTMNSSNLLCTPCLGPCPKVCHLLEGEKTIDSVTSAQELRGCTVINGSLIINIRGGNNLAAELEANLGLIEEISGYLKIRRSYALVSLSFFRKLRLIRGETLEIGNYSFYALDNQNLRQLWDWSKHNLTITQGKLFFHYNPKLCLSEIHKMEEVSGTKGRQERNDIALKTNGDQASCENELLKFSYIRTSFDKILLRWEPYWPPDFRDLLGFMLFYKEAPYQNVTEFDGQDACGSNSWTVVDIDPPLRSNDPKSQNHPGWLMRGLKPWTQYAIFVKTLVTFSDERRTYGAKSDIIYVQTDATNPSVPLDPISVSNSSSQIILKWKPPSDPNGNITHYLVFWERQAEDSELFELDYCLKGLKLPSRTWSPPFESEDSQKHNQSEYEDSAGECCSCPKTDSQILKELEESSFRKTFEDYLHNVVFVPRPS
Sequence of human insulin receptor, A-isoform (without exon 11) (P06213 763-1382 partner limits assumed): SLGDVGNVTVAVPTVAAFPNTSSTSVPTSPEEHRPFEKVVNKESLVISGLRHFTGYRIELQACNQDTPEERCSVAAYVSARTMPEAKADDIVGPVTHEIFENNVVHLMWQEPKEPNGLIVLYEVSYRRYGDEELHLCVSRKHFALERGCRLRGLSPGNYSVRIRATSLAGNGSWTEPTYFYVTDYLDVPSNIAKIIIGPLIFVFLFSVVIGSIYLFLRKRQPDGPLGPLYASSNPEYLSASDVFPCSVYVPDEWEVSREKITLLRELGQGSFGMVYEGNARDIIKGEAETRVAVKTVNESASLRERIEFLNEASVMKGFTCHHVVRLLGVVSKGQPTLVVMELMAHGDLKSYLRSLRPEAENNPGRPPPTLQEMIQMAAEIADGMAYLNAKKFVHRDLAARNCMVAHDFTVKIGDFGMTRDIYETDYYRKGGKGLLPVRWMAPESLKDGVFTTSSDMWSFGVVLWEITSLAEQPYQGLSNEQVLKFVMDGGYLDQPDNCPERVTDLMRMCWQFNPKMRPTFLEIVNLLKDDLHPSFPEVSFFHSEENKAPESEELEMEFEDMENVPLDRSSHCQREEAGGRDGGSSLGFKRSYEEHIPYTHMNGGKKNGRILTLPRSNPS
Method: The affinity of the insulin derivatives of this invention for the human insulin receptor is determined by a SPA assay (Scintillation Proximity Assay) microtiterplate antibody capture assay. SPA-PVT antibody-binding beads, anti-mouse reagent (Amersham Biosciences, Cat No. PRNQ0017) are mixed with 25 ml of binding buffer (100 mM HEPES pH 7.8; 100 mM sodium chloride, 10 mM MgSO4, 0.025% Tween-20). Reagent mix for a single Packard Optiplate (Packard No. 6005190) is composed of 2.4 μl of a 1:5000 diluted purified recombinant human insulin receptor (either with or without exon 11), an amount of a stock solution of A14Tyr[^125I]-human insulin corresponding to 5000 cpm per 100 μl of reagent mix, 12 μl of a 1:1000 dilution of F12 antibody, 3 ml of SPA-beads and binding buffer to a total of 12 ml. A total of 100 μl reagent mix is then added to each well in the Packard Optiplate and a dilution series of the insulin derivative is made in the Optiplate from appropriate samples. The samples are then incubated for 16 hours while gently shaken. The phases are the then separated by centrifugation for 1 min and the plates counted in a Topcounter. The binding data were fitted using the nonlinear regression algorithm in the GraphPad Prism 2.01 (GraphPad Software, San Diego, Calif.).

| Substance | Insulin receptor binding, A-isoform (without exon 11) Relative to human insulin [%] |
| --- | --- |
| A14E, A22K(N^+mPEG2000-Propionyl), B25H, B29R, desB30 Human Insulin [Example 16] | 15 |
| A14E, A22K(N^ε(mdPEG12)3-dPEG4-yl), B25H, B29R, desB30 Human Insulin [Example 17] | 19 |
| A14E, A22K(N^ε(mdPEG12)3-dPEG4-yl-dPEG12-yl), B25H, B29R, desB30 Human Insulin [Example 18] | 16 |
| A22G, A23G, A24G, A25K(N^εmPEG750-Propionyl), B29R, desB30 Human Insulin [Example 7] | 44 |
| A22G, A23K(N^εmPEG2000-Propionyl), B29R, desB30 Human Insulin [Example 8] | 58 |
| A22K(N^ε(mdPEG12)3-dPEG4-yl), B29R, desB30 Human Insulin [Example 6] | 120 |
| A22K(N^ε(mdPEG12)3-dPEG4-yl-dPEG12-yl), B29R, desB30 Human Insulin [Example 19] | 106 |
| A22K(N^ε-mPEG2000-Propionyl), B29R, desB30 Human Insulin [Example 1] | 90 |
| A22K(N^εmPEG2000-Propionyl), B29R, desB30 Human Insulin [Example 2] | 90 |
| B29Q, B31K(N^ε(mPEG2000-Propionyl)) Human Insulin [Example 22] | 14 |
